How the values were obtained:
Format in all cases: functional, organism-based
Glycine max [1] = test: Herbicidal activity against Glycine max (soybean) grown in loam soil at pH 5.8 assessed as chlorophyll bleaching effect on shoots compound treated to soil measured after 10 days relative to untreated control
Glycine max [2] = test: Herbicidal activity against Glycine max (soybean) grown in slit loam soil at pH 7.6 assessed as chlorophyll bleaching effect on shoots compound treated to soil measured after 10 days relative to untreated control
Glycine max [3] = test: Herbicidal activity against Glycine max (soybean) grown in slit loam soil at pH 6.0 assessed as chlorophyll bleaching effect on shoots compound treated to soil measured after 10 days relative to untreated control
Glycine max [4] = test: Herbicidal activity against Glycine max (soybean) grown in clay soil at pH 8.0 assessed as chlorophyll bleaching effect on shoots compound treated to soil measured after 10 days relative to untreated control
Glycine max [5] = test: Herbicidal activity against Glycine max (soybean) grown in loam soil at pH 5.5 assessed as chlorophyll bleaching effect on shoots compound treated to soil measured after 10 days relative to untreated control
Glycine max [6] = test: Herbicidal activity against Glycine max (soybean) grown in sandy clay loam soil at pH 5.7 assessed as chlorophyll bleaching effect on shoots compound treated to soil measured after 10 days relative to untreated control
Glycine max [7] = test: Herbicidal activity against Glycine max (soybean) grown in sandy clay loam soil at pH 7.9 assessed as chlorophyll bleaching effect on shoots compound treated to soil measured after 10 days relative to untreated control
Glycine max [8] = test: Herbicidal activity against Glycine max (soybean) grown in sandy soil at pH 8.0 assessed as chlorophyll bleaching effect on shoots compound treated to soil measured after 10 days relative to untreated control

## CNc1cnn(-c2cccc(C(F)(F)F)c2)c(=O)c1Cl [NORFLURAZONE]
Glycine max [1]
  IC50: 1.98 mg/kg
Glycine max [2]
  IC50: 1.68 mg/kg
Glycine max [3]
  IC50: 1.94 mg/kg
Glycine max [4]
  IC50: 1.04 mg/kg
Glycine max [5]
  IC50: 0.87 mg/kg
Glycine max [6]
  IC50: 0.43 mg/kg
Glycine max [7]
  IC50: 0.22 mg/kg
Glycine max [8]
  IC50: 0.08 mg/kg
